In general, IC50 refers to the concentration that inhibits the measured activity by half.

Where only a bound is given, the exact number is not on record here.

Chain of PI 3-kinase beta (P42338 whole entry): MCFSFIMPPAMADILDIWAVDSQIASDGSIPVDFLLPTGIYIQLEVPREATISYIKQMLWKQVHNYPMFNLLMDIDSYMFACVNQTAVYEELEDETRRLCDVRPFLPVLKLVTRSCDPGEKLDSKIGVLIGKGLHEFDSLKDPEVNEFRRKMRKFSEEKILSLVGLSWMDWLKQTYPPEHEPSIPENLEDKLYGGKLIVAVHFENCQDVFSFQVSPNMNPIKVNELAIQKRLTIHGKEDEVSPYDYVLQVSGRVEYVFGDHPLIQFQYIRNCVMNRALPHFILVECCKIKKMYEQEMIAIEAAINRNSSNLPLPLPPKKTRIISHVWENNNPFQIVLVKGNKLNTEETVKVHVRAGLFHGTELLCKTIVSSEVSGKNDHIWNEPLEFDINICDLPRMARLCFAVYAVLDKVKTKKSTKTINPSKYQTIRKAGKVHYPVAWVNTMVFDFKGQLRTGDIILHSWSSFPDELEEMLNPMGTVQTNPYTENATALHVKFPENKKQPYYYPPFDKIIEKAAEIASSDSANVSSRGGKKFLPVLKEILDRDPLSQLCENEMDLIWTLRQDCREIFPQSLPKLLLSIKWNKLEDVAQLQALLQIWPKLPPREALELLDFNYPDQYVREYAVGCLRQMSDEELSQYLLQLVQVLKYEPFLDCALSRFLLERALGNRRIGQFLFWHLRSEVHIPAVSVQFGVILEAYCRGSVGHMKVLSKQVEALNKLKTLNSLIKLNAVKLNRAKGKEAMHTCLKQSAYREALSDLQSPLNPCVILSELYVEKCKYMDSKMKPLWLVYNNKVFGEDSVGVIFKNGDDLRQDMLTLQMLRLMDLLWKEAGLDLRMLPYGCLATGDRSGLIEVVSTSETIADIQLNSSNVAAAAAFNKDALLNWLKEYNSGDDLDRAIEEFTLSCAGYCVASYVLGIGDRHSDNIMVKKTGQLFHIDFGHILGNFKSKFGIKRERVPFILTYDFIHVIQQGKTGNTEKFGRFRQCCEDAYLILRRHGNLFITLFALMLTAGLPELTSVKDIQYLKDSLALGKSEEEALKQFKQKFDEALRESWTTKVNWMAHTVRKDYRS
Chain of PI 3-kinase beta (Q63787 whole entry partner): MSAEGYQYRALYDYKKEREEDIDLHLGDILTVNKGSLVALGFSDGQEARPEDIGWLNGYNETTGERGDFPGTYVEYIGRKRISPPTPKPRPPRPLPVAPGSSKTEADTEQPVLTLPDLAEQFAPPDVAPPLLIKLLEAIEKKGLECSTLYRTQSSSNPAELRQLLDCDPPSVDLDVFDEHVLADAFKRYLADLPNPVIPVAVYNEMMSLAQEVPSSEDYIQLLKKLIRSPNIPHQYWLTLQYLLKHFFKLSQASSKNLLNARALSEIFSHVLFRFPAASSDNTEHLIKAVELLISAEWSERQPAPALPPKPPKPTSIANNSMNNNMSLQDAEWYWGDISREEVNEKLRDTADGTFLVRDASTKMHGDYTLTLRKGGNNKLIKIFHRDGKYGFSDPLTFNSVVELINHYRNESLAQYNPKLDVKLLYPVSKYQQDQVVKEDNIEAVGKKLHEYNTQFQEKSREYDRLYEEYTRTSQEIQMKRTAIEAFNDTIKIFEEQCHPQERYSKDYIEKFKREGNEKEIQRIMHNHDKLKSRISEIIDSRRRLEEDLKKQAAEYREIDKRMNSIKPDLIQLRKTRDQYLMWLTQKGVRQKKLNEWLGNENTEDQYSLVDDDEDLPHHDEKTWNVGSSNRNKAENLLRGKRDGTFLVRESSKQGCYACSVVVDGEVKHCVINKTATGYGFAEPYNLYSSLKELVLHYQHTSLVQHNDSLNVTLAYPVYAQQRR

This test has as its target PI 3-kinase beta (Homo sapiens (Human), UniProt P42338). Nature of the test: Cellular p-Akt (S473) SureFire assay, Rat-1_PI3Kbeta cells (Assay I). The class given is cell-based. The settings on record: p-AKT (Ser473) in Rat-1 cells expressing myr-HA-hp110 beta, 1 h compound; read-out: Assay I PI3Kβ IC50. An excerpt: Cellular Assays for PI 3-Kinase Alpha (H), Beta (I) and Delta (J)
AlphaScreen (Amplified Luminescent Proximity Homogeneous Assay, ALPHA, Perkin Elmer) is a non-radioactive bead-based proximity assay technology to study biomolecular interactions in a homogenous microtiter plate format. The brand name SureFire denotes AlphaScreen assays that are adapted to quantify the phosphorylation of endogenous cellular proteins in cell lysates, by using matched antibody pairs, which consist of an anti-phospho-kinase and an anti-kinase antibody. The assay allows characterization of kinase signaling in cells as well as measurement of kinase inhibitor effects.
Rat-1 cell lines stably overexpressing activated PI 3-kinase class I isoforms Rat-1 pBABEpuro Myr-HA-hp110 delta clone 5 (Rat-1_PI3Kdelta) and Rat-1 pBABEpuro Myr-HA-hp110 alpha clone 6 (Rat-1_PI3Kalpha) and Rat-1 pBABEpuro Myr-HA-hp110 beta (Rat-1_PI3beta) were cultivated in complete growth medium (DMEM high glucose, 10% (v/v) fetal bovine serum, 1% (v/v) MEM NEAA, 10 mM HEPES, 2 mM L-glutamine, puromycin (10 μg/mL for Rat-1_PI3Kdelta and Rat-1_PI3Kalpha, 4 ug/mL for Rat-1_PI3beta), 1% (v/v) Pen/Strep) to 90% confluency at 37° C./5% CO2/90% humidity in a humidified CO2 incubator and were split twice a week. The following materials were used for p-AKT(5473) detection in Rat-1 cell lysates: Dulbecco's modified Eagle's medium (DMEM) high glucose (Gibco Invitrogen, Basel, Switzerland, Cat. No. 41965), heat inactivated fetal bovine serum, qualified (HI FBS; Gibco Invitrogen, Basel, Switzerland, Lot. No. 16140), MEM non essential amino acids (NEAA; Gibco Invitrogen, Basel, Switzerland, Cat. No. 11140), HEPES (Gibco Invitrogen, Basel, Switzerland, Cat. No. 15630), penicillin/streptomycin (Pen/Strep, 100×; Gibco Invitrogen, Basel, Switzerland, Cat. No. 15140-122), L-glutamine (Gibco Invitrogen, Basel, Switzerland, Cat. No. 25030), puromycin (Sigma Aldrich, Buchs, Switzerland, Cat. No. P9620), DMSO (MERCK, Dietikon, Switzerland, Cat. No. 8.02912.2500), H2O, MilliQ-H2O unless otherwise stated (MILLIPORE QGARDOOR1, Millipore, Zug, Switzerland), bovine serum albumine (BSA; Sigma Aldrich, Buchs, Switzerland Cat. No. A8412), SureFire p-Akt 1/2 (Ser473) Assay Kit (Perkin Elmer, Schwerzenbach, Switzerland, Cat. No. TGRAS50K).
The p-Akt (S473) SureFire assay measures the phosphorylation of endogenous cellular Akt 1/2 at Ser473 in cell lysates. Using Rat-1 cells stably expressing myr-HA-tagged versions of the human PI3Kdelta, PI3Kalpha, or PI3Kbeta p110 catalytic subunit isoforms, the assay was developed as a two-plate protocol in a 384-well format.
For compound testing, the cells were seeded at a density of 4000 (Rat-1_PI3Kdelta), 7500 (Rat-1_PI3Kalpha), or 6200 (Rat-1_PI3Kbeta) cells in 20 μl complete growth medium into cell culture treated 384-well plates and were grown at 37° C./5% CO2/90% humidity for 24 h. Shortly before compound transfer, the complete medium was removed, 30 μl assay buffer (DMEM high glucose, 1×MEM NEAA, 10 mM HEPES, 2 mM L-glutamine, 0.1% (w/v) BSA) was added and 10 μl of the compound predilutions were transferred to the cells. After treatment with compound for 1 h, the cells were lysed by the addition of 20 μl lysis buffer supplemented with 0.24% (w/v) BSA. Detection of p-AKT (Ser473) was performed with the SureFire p-Akt 1/2 (Ser473) Assay Kit according to the manufacturer's instructions using 5 ul of cell lysate in a total detection volume of 12 μl.
IC50 values of the percentage inhibition of each compound at 8 concentrations (usually 10, 3.0, 1.0, 0.3, 0.1, 0.030, 0.010 and 0.003 μM) n=2 were derived by fitting a sigmoidal dose-response curve to a plot of assay readout over inhibitor concentration as described. All fits were performed with the program XLfit4 (ID Business Solutions, Guildford, UK).
With `Cc1ccc(S(=O)(=O)NCC(C)(C)O)cc1-c1cncc(-c2cn(C)nc2C)n1` [Example 2, 3-[6-(1,3-Dimethyl-1H-pyrazol-4-yl)-pyrazin-2-yl]-N-(2-hydroxy-2-methyl-propyl)-4-methyl-benzenesulfonamide], the IC50 was determined as 0.784 µM.
As to `Cc1ccc(S(=O)(=O)NCCC(C)(C)O)cc1-c1cncc(-c2cn(C)nc2C)n1` [Example 3, 3-[6-(1,3-Dimethyl-1H-pyrazol-4-yl)-pyrazin-2-yl]-N-(3-hydroxy-3-methyl-butyl)-4-methyl-benzenesulfonamide], the IC50 was determined as 3.18 µM.
On to `Cc1ccc(S(=O)(=O)NCC2(C)COC2)cc1-c1cncc(-c2cn(C)nc2C)n1` [Example 4, Trans 3-[6-(1,3-Dimethyl-1H-pyrazol-4-yl)-pyrazin-2-yl]-4-methyl-N-(3-methyl-oxetan-3-ylmethyl)-benzenesulfonamide], for which the IC50 is 0.833 µM.
For the compound `Cc1ncc(-c2cncc(-c3cc(S(=O)(=O)N[C@H]4CC[C@H](O)CC4)ccc3C)n2)s1` [Example 5, Trans N-(4-Hydroxycyclohexyl)-4-methyl-3-(6-(2-methylthiazol-5-yl)pyrazin-2-yl)benzenesulfonamide], the half-maximal inhibitory concentration (IC50) was 9.42 µM.
With `Cc1ccc(S(=O)(=O)NCCC(C)(C)O)cc1-c1cncc(-c2cnn(CCN3CCOCC3)c2)n1` [Example 9, N-(3-Hydroxy-3-methyl-butyl)-4-methyl-3-{6-[1-(2-morpholin-4-yl-ethyl)-1H-pyrazol-4-yl]-pyrazin-2-yl}-benzenesulfonamide], the IC50 worked out at 6.98 µM.
With `Cc1ccc(S(=O)(=O)NCCC(C)(C)O)cc1-c1cncc(-c2cn(CCN3CCOCC3)nc2C)n1` [Example 10, N-(3-Hydroxy-3-methyl-butyl)-4-methyl-3-{6-[3-methyl-1-(2-morpholin-4-yl-ethyl)-1H-pyrazol-4-yl]-pyrazin-2-yl}-benzenesulfonamide] the figure was 3.83 µM; with `Cc1ccc(S(=O)(=O)N[C@H]2CC[C@H](O)CC2)cc1-c1cncc(-c2cccnc2)n1` [Example 11, Trans N-(4-Hydroxy-cyclohexyl)-4-methyl-3-(6-pyridin-3-yl-pyrazin-2-yl)-benzenesulfonamide], more than 10 µM.

Source of the values: patent US9862711B2, “Pyrazine derivatives as phosphatidylinositol 3-kinase inhibitors” (NOVARTIS AG, priority 2014, dated 2018).
